Measured values reported in PMC7743948, “D-LL-31 enhances biofilm-eradicating effect of currently used antibiotics for chronic rhinosinusitis and its immunomodulatory activity on human lung epithelial cells” (PLoS ONE, 2020).
Several values for one entry are separate records, joined by “and”; a condition that tells them apart may be missing. Identical values can stand only once. Like-named read-outs stand apart in the source and are kept apart here. Ends that are not written are not given here.

Assays:
[1] = test system: K. pneumoniae; test: Disc antimicrobial susceptibility test (BD BBL Sensi-Disc); format: cell-based, Klebsiella pneumoniae; design: key: Susceptible; Intermediate; Resistant; conditions: 24 h
Experimental: (§1) Supplementary file pone.0243315.s001.docx: S1 Table Antimicrobial susceptibility test results of reference strain and representative bacteria used from CRS patients. Bacterial suspensions were incubated with antibiotics for 24 h and the results were interpreted according to BD BBL™ Sensi-Disc™ antimicrobial susceptibility test discs. (DOCX) Click here for additional data file.
(§2) Antibiotics susceptibility testing was performed using BD BBL™ Sensi-Disc™ antimicrobial susceptibility test discs (Becton, Dickinson and Company, Franklin Lakes, NJ) and the results were interpreted according to the manufacturer's instructions.

[2] = test system: P. aeruginosa ATCC27853; test: as above; format: cell-based, Pseudomonas aeruginosa; design: key: Susceptible; Intermediate; Resistant; conditions: 24 h
Experimental: as §1, §2

[3] = test system: P. aeruginosa; test: as above; format: cell-based, Pseudomonas aeruginosa; design: key: Susceptible; Intermediate; Resistant; conditions: 24 h
Experimental: as §1, §2

[4] = test system: S. epidermidis; test: as above; format: cell-based, Staphylococcus epidermidis; design: key: Susceptible; Intermediate; Resistant; conditions: 24 h
Experimental: as §1, §2

[5] = test system: reference strain P. aeruginosa ATCC 27853; test: Killing of planktonic bacteria (CFU count); format: cell-based, Pseudomonas aeruginosa
Experimental: (§3) A bacterial suspension without peptide served as a control. The samples were then serially diluted and cultivated on NA (Himedia®) and incubated for 24 h to allow colony counting. The percentage killing by each AMP was calculated using the formula [1 − (CFU sample/CFU control)] × 100% [15, 36]. Each experiment was performed independently three times in duplicate.

[6] = test system: clinical isolate P. aeruginosa; test: Killing of planktonic bacteria (CFU count); format: cell-based, Pseudomonas aeruginosa; conditions: 1–2 h
Experimental: as §3

[7] = test system: P. aeruginosa; test: Broth microdilution MIC/MBC of conventional antibiotics, planktonic form; format: cell-based, Pseudomonas aeruginosa; conditions: for MBC: broth microdilution then plate count on MHA, planktonic
Experimental: (§4) MICs and MBCs of conventional antibiotics were determined using a broth microdilution technique. […] Only P. aeruginosa was additionally tested for susceptibility to TOB (Sigma-Aldrich) (0.03–52 μM or 0.01–25 μg/ml). Bacterial suspensions (5 x 10^5 CFU/ml) were added to the microtiter plates, which were then incubated at 37 °C for 24 h. Antibiotic-free culture was used as a control. […] The results were confirmed using a microplate reader at OD620 (Sunrise™, TECAN, Australia). The plate count technique was further used to determine the MBC values on Mueller Hinton agar (MHA) (Himedia®). Each experiment was performed independently three times in triplicate.

[8] = test system: P. aeruginosa biofilm; test: Checkerboard synergy of D-LL-31 with antibiotics on biofilm; format: cell-based, Pseudomonas aeruginosa
Experimental: (§5) Bacterial viability in each interaction was determined using the plate count technique. The fractional inhibitory concentration index (FICI) values were calculated and interpreted in terms of synergism/antagonism as previously described. Each experiment was performed independently three times in duplicate.

[9] = test system: P. aeruginosa biofilm; test: microbe, parasite or virus in culture
Experimental: (§6) The effects of both conventional antibiotics and AMPs against bacteria under biofilm-stimulating condition were determined using a transferable solid phase (TSP) pin lid, which resembles the ‘Calgary’ biofilm device as previously described with some modifications. Each strain (10^7 CFU/ml) was added to sterile 96-well plates (Nunclon™), then covered by a TSP pin lid (NUNC™, Roskilde, Denmark), and further incubated at 37 °C for 24 h. […] Additionally, the effect of TOB (2–836 μM or 1–391 μg/ml) against P. aeruginosa biofilm was also investigated. Then the plates were statically incubated at 37 °C for 24 h. A well free of antimicrobial agent was used as a control. After 24 h, bacterial survival was determined using the plate count technique on NA (Himedia®). The percentage killing of each antimicrobial agent was calculated using the formula [1 − (CFU sample/CFU control)] × 100% [15, 19]. […] Each experiment was performed independently three times in duplicate.

[10] = test system: K. pneumoniae; test: Broth microdilution MIC/MBC of conventional antibiotics, planktonic form; format: cell-based, Klebsiella pneumoniae; conditions: for MBC: broth microdilution then plate count on MHA; for MIC: broth microdilution, MHB, 5 x 10^5 CFU/ml, 37 °C, 24 h, CLSI
Experimental: as §4

[11] = test system: S. epidermidis biofilm matrix; test: Biofilm matrix reduction (AAA-model, CLSM, COMSTAT biomass); format: cell-based, Staphylococcus epidermidis; conditions: AMX alone at IC50 (33092 μM), 24 h, P < 0.05
Experimental: Briefly, 1.5 ml of each overnight culture (10^8 CFU/ml) was added to a 24-well tissue culture plate (Nunclon™). The plate was covered with a sterile stainless-steel lid containing glass coverslips and aerobically incubated at 37°C for 24 h. […] All tested conditions were incubated at 37°C for 24 h. A well free of antimicrobial agent was used as a control. Following incubation, biofilms were fixed with 2.5% glutaraldehyde (Sigma-Aldrich) at 25°C for 3 h. The fixed bacterial biofilms on glass coverslips were stained with 50 μg/ml Alexa Fluor® 488 (Invitrogen, Carlsbad, CA) for 30 min. This stain reacts with exopolysaccharide matrixes of the biofilm. The glass coverslips were then mounted with 80% glycerol and the stained cells were photographed using a confocal laser-scanning microscope (CLSM) (TCS SP8-Leica Microsystems, Wetzlar, Germany). […] Each experiment was performed independently three times in duplicate.

[12] = test system: all strains (bacteria isolated from CRS patients); test: Broth microdilution susceptibility, statement for all strains; format: cell-based; conditions: planktonic form
Experimental: MICs and MBCs of conventional antibiotics were determined using a broth microdilution technique. […] Only P. aeruginosa was additionally tested for susceptibility to TOB (Sigma-Aldrich) (0.03–52 μM or 0.01–25 μg/ml). Bacterial suspensions (5 x 10^5 CFU/ml) were added to the microtiter plates, which were then incubated at 37 °C for 24 h. Antibiotic-free culture was used as a control. After incubation, MIC values were observed according to the guidelines of the Clinical & Laboratory Standards Institute (CLSI). The results were confirmed using a microplate reader at OD620 (Sunrise™, TECAN, Australia). The plate count technique was further used to determine the MBC values on Mueller Hinton agar (MHA) (Himedia®). Each experiment was performed independently three times in triplicate.

[13] = test system: K. pneumoniae biofilm; test: microbe, parasite or virus in culture
Experimental: as §6

[14] = test system: S. epidermidis biofilm; test: microbe, parasite or virus in culture
Experimental: as §6

[15] = test system: K. pneumoniae biofilm; test: Checkerboard synergy of D-LL-31 with antibiotics on biofilm; format: cell-based, Klebsiella pneumoniae; conditions: Klebsiella pneumoniae, read-out: Antimicrobial agent in concentration of combination
Experimental: as §5

[16] = test system: S. epidermidis biofilm; test: as above; format: cell-based, Staphylococcus epidermidis; conditions: Staphylococcus epidermidis, read-out: Antimicrobial agent in concentration of combination
Experimental: as §5

[17] = test system: S. epidermidis; test: Broth microdilution MIC/MBC of conventional antibiotics, planktonic form; format: cell-based, Staphylococcus epidermidis; conditions: MHB, 5 x 10^5 CFU/ml, 37 °C, 24 h, CLSI
Experimental: as §4

[18] = Pseudomonas aeruginosa, 24 h, read-out: IC50 value
[19] = highest concentration of AMX (68418 μM or 25000 μg/ml), 24 h biofilm, 24 h

O=C(N[C@H](CO)[C@H](O)c1ccc([N+](=O)[O-])cc1)C(Cl)Cl [CHL, Chloramphenicol]
antimicrobial susceptibility [1]: S
antimicrobial susceptibility [2]: S
antimicrobial susceptibility [3]: R
antimicrobial susceptibility [4]: S

CN(C)[C@@H]1C(O)=C(C(N)=O)C(=O)[C@@]2(O)C(O)=C3C(=O)c4c(O)cccc4[C@@](C)(O)[C@H]3C[C@@H]12 [TET, Tetracycline]
antimicrobial susceptibility [1]: I
antimicrobial susceptibility [2]: S
antimicrobial susceptibility [3]: R
antimicrobial susceptibility [4]: S

CC1(C)S[C@@H]2[C@H](NC(=O)[C@H](N)c3ccccc3)C(=O)N2[C@H]1C(=O)O [AMP, Ampicillin]
antimicrobial susceptibility [1]: R
antimicrobial susceptibility [4]: R

CC[C@H]1OC(=O)[C@H](C)[C@@H](O[C@H]2C[C@@](C)(OC)[C@@H](O)[C@H](C)O2)[C@H](C)[C@@H](O[C@@H]2O[C@H](C)C[C@H](N(C)C)[C@H]2O)[C@](C)(O)C[C@@H](C)C(=O)[C@H](C)[C@@H](O)[C@]1(C)O [ERY, Erythromycin]
antimicrobial susceptibility [4]: R

CO/N=C(\C(=O)N[C@@H]1C(=O)N2C(C(=O)O)=C(CSc3nc(=O)c(=O)[nH]n3C)CS[C@H]12)c1csc(N)n1 [CRO, Ceftriaxone]
antimicrobial susceptibility [1]: S
antimicrobial susceptibility [2]: S
antimicrobial susceptibility [3]: R
antimicrobial susceptibility [4]: S

NC[C@H]1O[C@H](O[C@H]2[C@H](O)[C@@H](O[C@H]3O[C@H](CO)[C@@H](O)[C@H](N)[C@H]3O)[C@H](N)C[C@@H]2N)[C@H](N)C[C@@H]1O [TOB, tobramycin]
antimicrobial susceptibility [1]: S
antimicrobial susceptibility [2]: S
antimicrobial susceptibility [3]: S
killing effect ([5]; 1 μM, 1 h): ≥ 98%
killing of bacterial cells, in words ([5]; 5 and 10 μM, within 1 h): killed all bacterial cells
killing effect ([6]; 1 and 5 μM): ≥ 92%
concentration required to kill all bacterial cells ([6]; planktonic): 10 µM
MBC ([7]; Pseudomonas aeruginosa, read-out: MBC): 0.001 mM
MBC [7]: 0.4 µg/mL
susceptibility in words ([7]; planktonic form): susceptible
Fold decrease of IC50 values ([8]; D-LL-31 combined with TOB; IC50 alone compared with concentration of combination): 16 fold
IC50 ([8]; Pseudomonas aeruginosa, 24 h, read-out: Antimicrobial agent in concentration of combination): 0.2 µM
IC50 ([8]; Pseudomonas aeruginosa, read-out: Antimicrobial agent in concentration of combination): 0.1 µg/mL
sensitivity of biofilm, in words ([9]; 24 h biofilm, 24 h): sensitive
IC50 [9, 18]: 4 µM and 2 µg/mL
antimicrobial susceptibility [4]: S

NC[C@H]1O[C@H](O[C@H]2[C@H](O)[C@@H](O[C@H]3O[C@H](CO)[C@@H](O)[C@H](N)[C@H]3O)[C@H](N)C[C@@H]2N)[C@H](O)[C@@H](O)[C@@H]1O [KAN, Kanamycin]
antimicrobial susceptibility [1]: S
antimicrobial susceptibility [4]: S

CC1(C)S[C@@H]2[C@H](NC(=O)[C@H](N)c3ccc(O)cc3)C(=O)N2[C@H]1C(=O)O [AMX, amoxicillin]
MBC ([10]; Klebsiella pneumoniae, read-out: MBC): 8.55 mM
MIC ([10]; Klebsiella pneumoniae, three independent experiments in triplicate, read-out: MIC): 4.28 mM
MBC [10]: 3125 µg/mL
MIC [10]: 1562.5 µg/mL
IC50 ([8]; Pseudomonas aeruginosa, 24 h; read-out: Antimicrobial agent in concentration of combination): 2820 µM
IC50 ([8]; Pseudomonas aeruginosa; read-out: Antimicrobial agent in concentration of combination): 1030 µg/mL
effect on biofilm biomass [11]: significant effect
susceptibility in words [12]: Resistance
IC50 ([13]; Klebsiella pneumoniae, 24 h, read-out: IC50 value): 7.92 mM and 2900 µg/mL
IC50 of AMX higher than that of D-LL-31 ([13]; biofilm): ~13000 fold
killing activity [13, 19]: 90%
IC50 ([14]; Staphylococcus epidermidis, 24 h, read-out: IC50 value): 33.1 mM and 12100 µg/mL
IC50 of AMX higher than that of D-LL-31 ([14]; biofilm): ~66000 fold
killing activity [14, 19]: 75%
IC50 [9, 18]: 45.2 mM and 16500 µg/mL
IC50 of AMX higher than that of D-LL-31 ([9]; biofilm): about 11000 fold
killing activity [9, 19]: 70%
IC50 ([15]; 24 h): 495 µM
IC50 [15]: 181 µg/mL
IC50 ([16]; 24 h): 2070 µM
IC50 [16]: 756 µg/mL
MIC [17]: 1562.5 µg/mL
MIC ([17]; Staphylococcus epidermidis, read-out: MIC): 4.28 mM

Cc1onc(-c2ccccc2)c1C(=O)N[C@@H]1C(=O)N2[C@@H]1SC(C)(C)[C@@H]2C(=O)O [OXA, Oxacillin]
antimicrobial susceptibility [4]: S

Penicillin
antimicrobial susceptibility [4]: S

LLGDFFRKSKEKIGKEFKRIVQRIKDFLRNL [LL-31]
IC50 ([13]; biofilm, 24 h): 0.7 µM
IC50 ([14]; biofilm, 24 h): 1.8 µM
IC50 ([9]; biofilm, 24 h): 5.3 µM

CNC(C)C1CCC(N)C(OC2C(N)CC(N)C(OC3OCC(C)(O)C(NC)C3O)C2O)O1 (centres unmarked) [GEN, Gentamicin]
antimicrobial susceptibility [1]: I
antimicrobial susceptibility [2]: S
antimicrobial susceptibility [3]: I
antimicrobial susceptibility [4]: S
